Test results reported in paper PMC4738175 (Cancer letters, 2015).

Legend:
sEH [1] = molecular target: T1, sEH (Homo sapiens, UniProt P34913); assay: sEH enzyme assay; format: biochemical; details: read-out: sEH IC50
T1 sequence (P34913 1-555): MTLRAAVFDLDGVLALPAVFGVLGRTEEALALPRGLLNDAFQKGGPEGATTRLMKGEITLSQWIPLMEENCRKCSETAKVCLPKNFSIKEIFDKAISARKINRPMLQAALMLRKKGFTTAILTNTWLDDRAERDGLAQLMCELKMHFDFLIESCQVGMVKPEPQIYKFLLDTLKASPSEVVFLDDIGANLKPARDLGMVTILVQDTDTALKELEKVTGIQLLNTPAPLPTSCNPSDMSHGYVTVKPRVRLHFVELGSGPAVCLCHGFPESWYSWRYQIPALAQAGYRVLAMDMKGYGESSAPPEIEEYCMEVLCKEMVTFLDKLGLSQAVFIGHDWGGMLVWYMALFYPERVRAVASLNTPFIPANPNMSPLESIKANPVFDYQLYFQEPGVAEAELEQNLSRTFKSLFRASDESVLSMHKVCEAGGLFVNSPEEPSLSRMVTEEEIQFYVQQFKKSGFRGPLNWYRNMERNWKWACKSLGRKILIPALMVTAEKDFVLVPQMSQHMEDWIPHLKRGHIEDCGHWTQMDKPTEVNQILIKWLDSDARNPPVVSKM

phosphorylated ERK1/2 = assay: Immunohistochemical staining of phosphorylated ERK1/2 in PK03 tumors; details: 10mg/kg, n = 3 mice/group, vs PK03 control
sEH [2] = assay: Plasma oxylipin metabolic profile by LC-MS/MS in mice implanted with PK03 cells; format: in vivo
PK03 tumors = assay: Histopathology and immunohistochemistry; details: 10mg/kg; for number of MPO-labeled neutrophils/macrophages per high power field: 40X objective lens, P< 0.05 vs control; for tumor morphology vs PK03 control tumors: histopathology
phosphorylation of c-RAF = assay: Western blot of phosphorylated c-RAF in PK03 cells; format: cell-based, mouse; details: PK03 cells, 3, 10 or 30μM, 24 hours
PK03 cells [3] = details: 10mg/kg body weight in drinking water, end of 5 weeks, vs PK03 control
PK03 cells [4] = assay: Colony formation assay in PK03 cells; details: Mus musculus, read-out: IC50 dose, PK03 cell growth
[5] = tested on: phosphorylation of MEK1/2 and ERK1/2; assay: Western blot of phosphorylated MEK1/2 and ERK1/2 in PK03 cells; format: cell-based, mouse; details: PK03 cells, 3, 10 or 30μM, 24 hours
Toxicity in mice = format: in vivo; details: 35 days treatment
in vivo = details: male, Swiss Webster, mouse, po, 1 mg/kg
[6] = cited from earlier work

With CNC(=O)c1cc(O[C@H]2CC[C@@H](NC(=O)Nc3ccc(Cl)c(C(F)(F)F)c3)CC2)ccn1 [c-CUPM] as the compound, how does the IC50 (sEH [1]) read?
Its IC50 is 0.0005 µM.

Which “staining intensity of phosphorylated ERK1/2” value (phosphorylated ERK1/2) does the source give for CNC(=O)c1cc(O[C@H]2CC[C@H](NC(=O)Nc3ccc(Cl)c(C(F)(F)F)c3)CC2)ccn1 [t-CUPM, trans-4-{4-[3-(4-chloro-3-trifluoromethyl-phenyl)-ureido]-cyclohexyloxy}-pyridine-2-carboxylic acid methylamide] here?
Its value is 60 ± 19.2.

And the “effect on cyclooxygenase and lipoxygenase mediated metabolites (prostaglandins, thromboxane, leukotrienes, HETE)” value (sEH [2])?
The value was “no significant difference”.

And the “number of MPO-labeled neutrophils/macrophages per high power field” value (PK03 tumors)?
Its value is 12.4 ± 6.1.

And the “tumor morphology vs PK03 control tumors” value (PK03 tumors)?
The value was “more glandular differentiation with lumen formation and less inflammatory cells reaction”.

And the “inhibition of phosphorylation of c-RAF” value (phosphorylation of c-RAF)?
The value was “significantly inhibited”.

And the tumor size (PK03 cells [3])?
The tumor size was 275.9 ± 68.9 mm^3.

What about the tumor weight (PK03 cells [3]) of the same compound?
Its tumor weight is 0.25 ± 0.06 g.

And the IC50 (PK03 cells [4])?
The IC50 was 8.1 µM.

And the “inhibition of phosphorylation of MEK1/2 and ERK1/2” value [5]?
Its value is “significantly inhibited”.

What about the “toxic effect grossly and histopathologically” value (Toxicity in mice) of the same compound?
The value was “did not produce any toxic effect”.

And the half-life (in vivo)?
Its half-life is 2.2 ± 1.6 h.

With CNC(=O)c1cc(Oc2ccc(NC(=O)Nc3ccc(Cl)c(C(F)(F)F)c3)cc2)ccn1 [Sorafenib, reference compound] as the compound, how does the “effect on cyclooxygenase and lipoxygenase mediated metabolites (prostaglandins, thromboxane, leukotrienes, HETE)” value (sEH [2]) read?
The value was “no significant difference”.

What about the “number of MPO-labeled neutrophils/macrophages per high power field” value (PK03 tumors) of the same compound?
Its value is 15.1 ± 9.8.

What about the “tumor morphology vs PK03 control tumors” value (PK03 tumors) of the same compound?
Its value is “more glandular differentiation with lumen formation and less inflammatory cells reaction”.

What about the “inhibition of phosphorylation of c-RAF” value (phosphorylation of c-RAF) of the same compound?
Its value is “but not by sorafenib or t-AUCB”.

And the “clinically achievable plasma concentration” value [6]?
Its value is 10 µM.

What about the IC50 (PK03 cells [4]) of the same compound?
The IC50 was 9 µM.

And the “inhibition of phosphorylation of MEK1/2 and ERK1/2” value [5]?
Its value is “significantly inhibited”.

What about the Tmax (in vivo) of the same compound?
The Tmax was 2 h.

And the half-life (in vivo)?
The half-life was 1.5 ± 0.5 h.
